Structures can show the parent of a compound that is named as a salt.
What was measured:
Assay type in all cases: in vivo
[1] = tested on: IL-2; test: Serum IL-2 concentration (RIA) in goats pre- and post-operation
Description: (§1) An experiment was conducted on sixteen castrated adult goats, which were randomly divided into control group (n=8) and treatment group (TG, n=8); housed separately; and fed with the same nutrient level. The TG was treated orally with a cysteamine compound (the cysteamine compound is preferably cysteamine hydrochloride, where a dose of 45 mg/kg of body weight was administered, with 30% of the 45 mg/kg dosage comprising the cysteamine compound) provided by Shanghai Walcom Bio-Chem Ltd). Both groups were subjected to rumen operation and duodenum operation.
(§2) This experiment was conducted in four phases: (a) Roughage phase pre-operation: from day 18 to day 14 before the operation, both groups of goats were fed with roughage (dried peanut stalk) and water; (b) Concentrate phase pre-operation: day 13 to day 1 before the operation (in total 13 days), both groups were fed with roughage and concentrate (50 g/head), and the TG was also treated with a cysteamine compound (using dosages described above) at the same time; (c) Rumen operation phase: after completion of the concentrate phase pre-operation, the rumen operation was performed to affix a fistula on the rumen, which was followed by 18 days of recovery; (d) Duodenum operation phase: 18 days after the rumen operation, a second operation was performed to affix a fistula on the duodenum, following which the goats were allowed to have 17 days of recovery to complete this experiment. The feeding diet during the operation was same as that of concentrate phase per-operation.
(§3) While conducting the experiment, blood samples were periodically collected. In general, blood was collected via the neck vein before morning feeding. Part of the blood from each sample was stored in tubes containing heparin for anti-coagulation. The remaining part of each blood sample was centrifuged and then stored the serum at −20° C. Blood samples were collected at the following times: (a) Day 4 of the Roughage phase pre-operation; (b) Day 13 of the Concentrate phase (one day before the operation, B1); (c) 10 days after the 1st operation (rumen operation); and (d) 6 days and 17 days after the 2nd operation (duodenum operation).
(§4) Serum IL-2, cortisol concentration and lymphatic transformation testing were also performed during the experiment. […] To perform lymphatic cells transformation test, the blood samples from both groups were treated as follows: 3 tubes/sample, with blood sample 100 ul/tube for PHA− (PHA−: without PHA) and 3 tubes/sample for PHA+(PHA+: each tube added with 50 ul PHA diluted solution); cells in both PHA− and PHA+ were cultured for total 72 hours. After 48 hours of cell culture, 1 uL ^3H-TdR was added to each tube with and mixed with cells and incubated further for 24 hours. At the completion of the culturing process, the cells were lysed. The lysate from both PHA− and PHA+ tubes were transferred to scintillation bottles, dried at 80° C., then added with 5 ml scintillation solution. The solutions were stored overnight and tested for cpm. SI index implies the rate of lymphatic cells transformation induced by lectin, SI=cpm(PHA+)/cpm(PHA−).
(§5) IL-2 and cortisol testing kits were used. To prepare RPMI-1640 cell culture medium, RPMI-1640 powder was added with distillated water and filtered, and 20% Fetal Bovine Serum, Penicillin (100 U/ml) as well as Streptomycin (100 U/ml) was added. 2 ml culture medium solution was then added to each tube. In addition, diluted PHA, [Methy-^3H] Thymidine with radioactivity 1 mci/m, and Scintillation solution: PPO (2,5, Diphenyloxazole,) 5 g POPOP(1,4bis [5-phenyloxazolyl] benzene) 0.3 g Dimethyl benzene: 800 mL; 100% ethanol: 200 ml were added to each tube.
All data from the experiment (see Table 1) were expressed in mean±SE and analyzed by Excel software for t-test analysis, where P<0.05 implies significant difference, and 0.05<P<0.15 implies changes. The symbol “§” in Table 1 denotes TG treated with Cysteamine. […]

[2] = tested on: lymphatic cells; test: Lymphatic cells transformation test (PHA, 3H-TdR, SI) on blood of goats pre- and post-operation
Description: as §1, §2
While conducting the experiment, blood samples were periodically collected. In general, blood was collected via the neck vein before morning feeding. Part of the blood from each sample was stored in tubes containing heparin for anti-coagulation. […]
IL-2 and cortisol testing kits were used. […] Thymidine with radioactivity 1 mci/m, and Scintillation solution: PPO (2,5, Diphenyloxazole,) 5 g POPOP(1,4bis [5-phenyloxazolyl] benzene) 0.3 g Dimethyl benzene: 800 mL; 100% ethanol: 200 ml were added to each tube.

[3] = tested on: cortisol; test: Serum cortisol concentration (RIA) in goats pre- and post-operation
Description: as §1, §2, §3, §4, §5
Cortisol concentrations of the two groups before the operation were substantially similar (20.51±4.1 for the control group versus 20.32±4.0 ug 1^−1 for the TG). Changes in cortisol concentration levels in the TG before and after the 1st operation were slight. […]

[4] = tested on: Male C57BL/6N mice; test: Relative weights of spleen and thymus to body weight in mice; conditions: 30 days
Source text: Male C57BL/6N mice were used in Example 2, 28 mice in total. The 28 mice were used for pretest for 7 days before the treatment began. Two groups of 14 mice were then created. […] Each group contained […]. The treatment period was for 30 days. Lymphocyte transformation rate in plasma, white blood cell (WBC) count, natural killer cell activity, Plasma IL-2 (Kit provided by Jinginei Biotech) and IL-6 (Kit provided by Bender MedSystems) measurements, and antibody forming, cell count were performed according to methods known to the skilled artisan (see “Medical Immunology Experiment,” Publisher: People Hygiene, Published in 1999 in China, Editor: Xi Chuan Ping). Five days before the end of the treatment, 12 mice from each group (each replicate for 2 mice) were immunized with 0.5 ml of 2% sheep RBC (equivalent to −2×10^8 cells per ml) for testing spleen B-cells. The relative weights of spleen and thymus to body weight (mg/100 g BW) were also measured. All statistical analyses were performed on ANOVA. After conducting all tests and analyses, the relative weight of certain immune organs, namely the thymus and spleen, were measured, as illustrated in Table 4.

[5] = tested on: Male C57BL/6N mice; test: White blood cell (WBC) count in mice; conditions: 30 days
Source text: (§6) Male C57BL/6N mice were used in Example 2, 28 mice in total. The 28 mice were used for pretest for 7 days before the treatment began. Two groups of 14 mice were then created. […] Each group contained six replicates and each replicate contained 8 mice. The treatment period was for 30 days.
(§7) Lymphocyte transformation rate in plasma, white blood cell (WBC) count, natural killer cell activity, Plasma IL-2 (Kit provided by Jinginei Biotech) and IL-6 (Kit provided by Bender MedSystems) measurements, and antibody forming, cell count were performed according to methods known to the skilled artisan (see “Medical Immunology Experiment,” Publisher: People Hygiene, Published in 1999 in China, Editor: Xi Chuan Ping). Five days before the end of the treatment, 12 mice from each group (each replicate for 2 mice) were immunized with 0.5 ml of 2% sheep RBC (equivalent to −2×10^8 cells per ml) for testing spleen B-cells. The relative weights of spleen and thymus to body weight (mg/100 g BW) were also measured. All statistical analyses were performed on ANOVA.
(§8) The WBC count, lymphocyte transformation rate (specifically in the spleen), antibody forming cell, and natural killer cell killing rate (based on the killing rate of K562 cells by natural killer cell) were measured and analyzed, as illustrated in Tables 4and5.

[6] = tested on: lymphocyte; test: Lymphocyte transformation rate (SI value, PHA) in mice; conditions: 30 days
Source text: Male C57BL/6N mice were used in Example 2, 28 mice in total. The 28 mice were used for pretest for 7 days before the treatment began. Two groups of 14 mice were then created. […] Each group contained six replicates and each replicate contained 8 mice. The treatment period was for 30 days. Lymphocyte transformation rate in plasma, white blood cell (WBC) count, natural killer cell activity, Plasma IL-2 (Kit provided by Jinginei Biotech) and IL-6 (Kit provided by Bender MedSystems) measurements, and antibody forming, cell count were performed according to methods known to the skilled artisan (see “Medical Immunology Experiment,” Publisher: People Hygiene, Published in 1999 in China, Editor: Xi Chuan Ping). Five days before the end of the treatment, 12 mice from each group (each replicate for 2 mice) were immunized with 0.5 ml of 2% sheep RBC (equivalent to −2×10^8 cells per ml) for testing spleen B-cells. The relative weights of spleen and thymus to body weight (mg/100 g BW) were also measured. All statistical analyses were performed on ANOVA. The WBC count, lymphocyte transformation rate (specifically in the spleen), antibody forming cell, and natural killer cell killing rate (based on the killing rate of K562 cells by natural killer cell) were measured and analyzed, as illustrated in Tables 4and5. […]

[7] = tested on: spleen B-cells; test: Antibody forming cell count (spleen B-cells after sheep RBC immunization) in mice; conditions: 30 days, immunized with sheep RBC
Source text: as §6, §7, §8

[8] = tested on: K562 cells; test: Natural killer cell killing rate in mice; conditions: 30 days, killing of K562 cells
Source text: as §6, §7, §8

[9] = tested on: IL-2; test: Plasma IL-2 measurement in mice; conditions: 30 days
Source text: (§9) Male C57BL/6N mice were used in Example 2, 28 mice in total. The 28 mice were used for pretest for 7 days before the treatment began. Two groups of 14 mice were then created. […] Each group contained six replicates and each replicate contained 8 mice. The treatment period was for 30 days. Lymphocyte transformation rate in plasma, white blood cell (WBC) count, natural killer cell activity, Plasma IL-2 (Kit provided by Jinginei Biotech) and IL-6 (Kit provided by Bender MedSystems) measurements, and antibody forming, cell count were performed according to methods known to the skilled artisan (see “Medical Immunology Experiment,” Publisher: People Hygiene, Published in 1999 in China, Editor: Xi Chuan Ping). Five days before the end of the treatment, 12 mice from each group (each replicate for 2 mice) were immunized with 0.5 ml of 2% sheep RBC (equivalent to −2×10^8 cells per ml) for testing spleen B-cells. The relative weights of spleen and thymus to body weight (mg/100 g BW) were also measured. All statistical analyses were performed on ANOVA.

[10] = tested on: IL-6; test: Plasma IL-6 measurement in mice; conditions: 30 days
Source text: as §9

For NCCS [Cysteamine hydrochloride, cysteamine hydrochloride], the “difference in IL-2 concentration levels between the two groups” value ([1]; after 17 days from the 2nd operation) was “had disappeared”, the “TG IL-2 concentration levels higher than the control group” value ([1]; after the first operation (Day 10 after 1st, Day 6 after 2nd operation), P<0.05) was 90-100% and the “IL-2 concentration in TG, pre- versus post-operation” value ([1]; treatment group) was “no significant difference between pre- and post-operation”. The IL-2 serum concentration ([1]; treatment group n=8, oral 45 mg/kg BW (30% cysteamine compound), pre-operation Concentrate phase, listed as Cysteamine, hydrochloride, 45 mg/kg) was 0.97 ± 0.15 µg/L, the IL-2 serum concentration ([1]; treatment group n=8, oral 45 mg/kg BW (30% cysteamine compound), pre-operation Concentrate phase, listed as cysteamine compound, hydrochloride, 45 mg/kg) was 0.97 ± 0.15 µg/L and the IL-2 serum concentration ([1]; treatment group, oral 45 mg/kg BW, after 1st (rumen) operation, Day 10, listed as Cysteamine, hydrochloride, 45 mg/kg) was 1.32 ± 0.10 ^A ug/l. The IL-2 serum concentration ([1]; treatment group, oral 45 mg/kg BW, after 1st (rumen) operation, Day 10, listed as cysteamine compound, hydrochloride, 45 mg/kg) was 1.32 ± 0.10 µg/L, the IL-2 serum concentration ([1]; treatment group, oral 45 mg/kg BW, after 2nd (duodenum) operation, Day 6, listed as Cysteamine, hydrochloride, 45 mg/kg) was 0.95 ± 0.06 ^B ug/l and the IL-2 serum concentration ([1]; treatment group, oral 45 mg/kg BW, after 2nd (duodenum) operation, Day 6, listed as cysteamine compound, hydrochloride, 45 mg/kg) was 0.95 ± 0.06 µg/L. For the same compound, the IL-2 serum concentration ([1]; treatment group, oral 45 mg/kg BW, after 2nd (duodenum) operation, Day 17) was 1.02 ± 0.08 µg/L, the “degree of decrease in lymphatic cells transformation rate caused by surgical operations” value ([2]; TG versus control group, P<0.05) was “significantly smaller than that of the control group” and the “rate of TG lymphatic cell transformation increased compared to the rate of the control group” value ([2]; six days after the 2nd/duodenum operation, P<0.05) was 3.5 fold. The “lymphatic cells transformation rate (SI)” value ([2]; treatment group, oral 45 mg/kg BW, Concentrate phase pre-operation, P=0.14 vs control) was 132.4±20.3, the “cortisol concentration before the operation” value ([3]; TG, before the operation) was 20.32±4.0 ug 1^−1 and the “changes in cortisol concentration levels in the TG before and after the 1st operation” value ([3]; treatment group) was “slight”. For the same compound, the cortisol serum concentration ([3]; treatment group n=8, oral 45 mg/kg BW, pre-operation Concentrate phase) was 20.3 ± 4.0 µg/L, the cortisol serum concentration ([3]; treatment group, after 1st operation, Day 10) was 20.9 ± 3.7 µg/L and the cortisol serum concentration ([3]; treatment group, after 2nd operation, Day 6) was 21.2 ± 5.2 µg/L. For the same compound, the cortisol serum concentration ([3]; treatment group, after 2nd operation, Day 17) was 20.7 ± 5.8 µg/L, the Spleen weight ([4]; Treatment 1: 40 mg/kg BW oral) was 298 ± 5.03 mg/100 g of body weight and the Thymus weight ([4]; Treatment 1: 40 mg/kg BW oral) was 549 ± 1.89 ^B mg/100 g of body weight. The Spleen weight ([4]; Treatment 2: 80 mg/kg BW oral) was 296 ± 7.50 mg/100 g of body weight, the Thymus weight ([4]; Treatment 2: 80 mg/kg BW oral) was 567 ± 7.18 ^A mg/100 g of body weight and the “WBC Count” value ([5]; Treatment 1: 40 mg/kg BW oral) was 7.12 ± 0.65 10^9/L. For the same compound, the “WBC Count” value ([5]; Treatment 2: 80 mg/kg BW oral) was 7.53 ± 0.55 10^9/L, the “Lymphocyte Transformation (SI Value, Stimulation Index)” value ([6]; Treatment 1: 40 mg/kg BW oral) was 1.15 ± 0.02 ^B and the “Lymphocyte Transformation (SI Value, Stimulation Index)” value ([6]; Treatment 2: 80 mg/kg BW oral) was 1.24 ± 0.05 ^A. For the same compound, the “Antibody Forming Cell (OD, Optical Density)” value ([7]; Treatment 1: 40 mg/kg BW oral) was 1.48 ± 0.19 ^A OD, the “Antibody Forming Cell (OD, Optical Density)” value ([7]; Treatment 2: 80 mg/kg BW oral) was 0.91 ± 0.51 ^C OD and the “NK Killing Rate” value ([8]; Treatment 1: 40 mg/kg BW oral) was 92.19 ± 2.20%. For the same compound, the “NK Killing Rate” value ([8]; Treatment 2: 80 mg/kg BW oral) was 93.60 ± 2.21%, the “Plasma IL-2” value ([9]; Treatment 1: 40 mg/kg BW oral) was 5.88 ± 0.53 pg/mL and the “Plasma IL-2” value ([9]; Treatment 2: 80 mg/kg BW oral) was 5.76 ± 0.50 pg/mL. For the same compound, the “Plasma IL-6” value ([10]; Treatment 1: 40 mg/kg BW oral) was 226.20 ± 37.93 pg/mL and the “Plasma IL-6” value ([10]; Treatment 2: 80 mg/kg BW oral) was 247.00 ± 51.76 pg/mL.
